In patent US20200237742A1, “Serdexmethylphenidate Conjugates, Compositions And Methods Of Use Thereof” (priority 2018, published 2020):

Key:
[1] = Intravenous pharmacokinetic study (KP415.A03) in recreational stimulant users; details: human, in vivo, iv
Procedure: A study was conducted in humans to assess the intravenous abuse potential of serdexmethylphenidate relative to unconjugated d-methylphenidate and placebo in recreational stimulant abusers. This was a Phase 1, randomized, double-blind study in which serdexmethylphenidate and d-methylphenidate were administered intravenously in recreational stimulant users with a history of non-oral abuse. In Part A of the study, subjects (Cohort 1) participated in a dose-escalation phase to determine the optimal dose of intravenous d-methylphenidate based on tolerability and abuse-related pharmacodynamic assessments. […] The doses of serdexmethylphenidate and d-methylphenidate are equivalent with respect to molar amount of d-methylphenidate. FDA-recommended abuse potential measures and blood samples were collected at different times after dosing. Safety assessments were performed throughout the study.

[2] = tested on: healthy, nondependent, recreational stimulant users; experiment: Oral abuse potential study, VAS pharmacodynamic assessments; details: for Mean Difference Any Effects Emax, B vs E / Mean Difference Bad Effects Emax, B vs E / Mean Difference Feeling Alert/Drowsy Emax, B vs E / Mean Difference Feeling High Emax, B vs E / Mean Difference Good Effects Emax, B vs E / Mean Difference Overall Drug Liking Emax, B vs E / Mean Difference Take Drug Again Emax, B vs E / Mean Difference Drug Liking Emax, B vs E: SDX Cl 240 mg vs placebo
[3] = Focalin XR 80 mg vs SDX Cl 120 mg
[4] = Focalin XR 80 mg vs SDX Cl 240 mg
[5] = SDX Cl 120 mg vs placebo, listed as SDX chloride
[6] = phentermine HCl 60 mg vs SDX Cl 120 mg
[7] = phentermine HCl 60 mg vs SDX Cl 240 mg
[8] = phentermine HCl 60 mg vs SDX Cl 240 mg, listed as SDX chloride

## COC(=O)[C@H](c1ccccc1)[C@H]1CCCCN1C(=O)OC[n+]1cccc(C(=O)N[C@@H](CO)C(=O)O)c1.[Cl-] [serdexmethylphenidate chloride]
[1]
  AUCinf: 31.0
  AUCinf, GLSM: 28.9 ng·h/mL
  AUCinf, GLSM Ratio A/B: 12.2%
  AUClast: 25.7
  AUClast, GLSM: 23.8 ng·h/mL
  AUClast, GLSM Ratio A/B: 10.2%
  Cmax: 12.9 ng/mL
  Cmax, GLSM: 12.1 ng/mL
  Cmax, GLSM Ratio A/B: 20.8%
  T1/2: 8.23 h
  Tmax: 5.93 min
[2]; [3]
  Mean Difference Any Effects Emax, C vs A: statistically lower
  Mean Difference Bad Effects Emax, C vs A: statistically lower
  Mean Difference Feeling Alert/Drowsy Emax, C vs A: statistically lower
  Mean Difference Feeling High Emax, C vs A: statistically lower
  Mean Difference Good Effects Emax, C vs A: statistically lower
  Mean Difference Overall Drug Liking Emax, C vs A: about 4.5
  Mean Difference Take Drug Again Emax, C vs A: not statistically significant
[2]; Focalin XR 80 mg vs SDX Cl 120 mg, listed as SDX chloride
  Mean Difference Overall Drug Liking Emax, C vs A: not statistically significant
[2]; Focalin XR 80 mg vs SDX Cl 120 mg, margin 10
  Mean Difference Drug Liking Emax, C vs A: at least 18.2
[2]; Focalin XR 80 mg vs SDX Cl 120 mg, margin 10, listed as SDX chloride
  Mean Difference Drug Liking Emax, C vs A: statistically significantly lower
[2]; [4]
  Mean Difference Any Effects Emax, C vs B: statistically lower
  Mean Difference Bad Effects Emax, C vs B: statistically lower
  Mean Difference Feeling Alert/Drowsy Emax, C vs B: statistically lower
  Mean Difference Feeling High Emax, C vs B: statistically lower
  Mean Difference Good Effects Emax, C vs B: statistically lower
  Mean Difference Overall Drug Liking Emax, C vs B: about 5.0
  Mean Difference Take Drug Again Emax, C vs B: not statistically significant
[2]; Focalin XR 80 mg vs SDX Cl 240 mg, listed as SDX chloride
  Mean Difference Overall Drug Liking Emax, C vs B: not statistically significant
[2]; Focalin XR 80 mg vs SDX Cl 240 mg, margin 10
  Mean Difference Drug Liking Emax, C vs B: at least 16.7
[2]; Focalin XR 80 mg vs SDX Cl 240 mg, margin 10, listed as SDX chloride
  Mean Difference Drug Liking Emax, C vs B: statistically significantly lower
[2]; SDX Cl 120 mg vs placebo
  Mean Difference Any Effects Emax, A vs E: 11.0
  Mean Difference Bad Effects Emax, A vs E: 1.3
  Mean Difference Feeling Alert/Drowsy Emax, A vs E: 7.7
  Mean Difference Feeling High Emax, A vs E: 10.4
  Mean Difference Good Effects Emax, A vs E: 12.1
  Mean Difference Overall Drug Liking Emax, A vs E: 3.8
  Mean Difference Take Drug Again Emax, A vs E: 2.2
[2]; [5]
  Mean Difference Bad Effects Emax, A vs E: not statistically different
  Mean Difference Feeling Alert/Drowsy Emax, A vs E: statistically higher
  Mean Difference Good Effects Emax, A vs E: statistically higher
  Mean Difference Overall Drug Liking Emax, A vs E: not statistically different
  Mean Difference Take Drug Again Emax, A vs E: not statistically different
[2]; SDX Cl 120 mg vs placebo, margin 11
  Mean Difference Drug Liking Emax, A vs E: 6.8
[2]; SDX Cl 120 mg vs placebo, margin 11, listed as SDX chloride
  Mean Difference Drug Liking Emax, A vs E: not statistically non-inferior
[2]; SDX Cl 120 mg, bipolar VAS
  Drug Liking Emax, Median: 53.0
  Feeling Alert/Drowsy Emax, Median: 54.0
  Overall Drug Liking Emax, Median: 50.0
  Take Drug Again Emax, Median: 50.0
[2]; SDX Cl 120 mg, unipolar VAS
  Any Effects Emax, Median: 14.0
  Bad Effects Emax, Median: 0.0
  Feeling High Emax, Median: 7.0
  Good Effects Emax, Mean: 27.0
  Good Effects Emax, Median: 10.0
[2]
  Mean Difference Any Effects Emax, B vs E: 20.5
  Mean Difference Bad Effects Emax, B vs E: 8.6
  Mean Difference Feeling Alert/Drowsy Emax, B vs E: 11.2
  Mean Difference Feeling High Emax, B vs E: 18.8
  Mean Difference Good Effects Emax, B vs E: 17.4
  Mean Difference Overall Drug Liking Emax, B vs E: 3.3
  Mean Difference Take Drug Again Emax, B vs E: 1.7
[2]; listed as SDX chloride
  Mean Difference Any Effects Emax, B vs E: statistically higher
  Mean Difference Bad Effects Emax, B vs E: statistically higher
  Mean Difference Feeling Alert/Drowsy Emax, B vs E: statistically higher
  Mean Difference Feeling High Emax, B vs E: statistically higher
  Mean Difference Good Effects Emax, B vs E: statistically higher
  Mean Difference Overall Drug Liking Emax, B vs E: not statistically different
  Mean Difference Take Drug Again Emax, B vs E: not statistically different
[2]; margin 11
  Mean Difference Drug Liking Emax, B vs E: 8.3
[2]; margin 11, listed as SDX chloride
  Mean Difference Drug Liking Emax, B vs E: not statistically non-inferior
[2]; [6]
  Mean Difference Any Effects Emax, D vs A: statistically lower
  Mean Difference Bad Effects Emax, D vs A: statistically lower
  Mean Difference Feeling Alert/Drowsy Emax, D vs A: statistically lower
  Mean Difference Feeling High Emax, D vs A: statistically lower
  Mean Difference Good Effects Emax, D vs A: statistically lower
  Mean Difference Overall Drug Liking Emax, D vs A: about 14.9
  Mean Difference Take Drug Again Emax, D vs A: statistically lower
[2]; phentermine HCl 60 mg vs SDX Cl 120 mg, listed as SDX chloride
  Mean Difference Overall Drug Liking Emax, D vs A: statistically lower
[2]; phentermine HCl 60 mg vs SDX Cl 120 mg, margin 10
  Mean Difference Drug Liking Emax, D vs A: at least 15.5
[2]; phentermine HCl 60 mg vs SDX Cl 120 mg, margin 10, listed as SDX chloride
  Mean Difference Drug Liking Emax, D vs A: statistically significantly lower
[2]; [7]
  Mean Difference Any Effects Emax, D vs B: statistically lower
  Mean Difference Bad Effects Emax, D vs B: statistically similar
  Mean Difference Feeling Alert/Drowsy Emax, D vs B: statistically lower
  Mean Difference Feeling High Emax, D vs B: statistically lower
  Mean Difference Good Effects Emax, D vs B: statistically lower
  Mean Difference Overall Drug Liking Emax, D vs B: about 15.3
  Mean Difference Take Drug Again Emax, D vs B: 15.4
[2]; [8]
  Mean Difference Overall Drug Liking Emax, D vs B: statistically lower
  Mean Difference Take Drug Again Emax, D vs B: statistically lower
[2]; phentermine HCl 60 mg vs SDX Cl 240 mg, margin 10
  Mean Difference Drug Liking Emax, D vs B: at least 14.0
[2]; phentermine HCl 60 mg vs SDX Cl 240 mg, margin 10, listed as SDX chloride
  Mean Difference Drug Liking Emax, D vs B: not statistically greater than 10 points
